Test results as given in PMC7618597, “Dual Nurr1/RXR agonism of valerenic acid and synthetic mimetics enables dimer-selective Nurr1 modulation” (ACS medicinal chemistry letters, 2025).

Molecular target: T1, full-length Nurr1 monomer (NBRE) (Homo sapiens, UniProt P43354)
T1 construct: full-length human nuclear receptor Nurr1 encoded by pcDNA3.1 -hNurr1-NE; host or cells: HEK293T
Test: Full-length Nurr1 reporter gene assay, monomer response element NBRE
Assay type: cell-based
Procedure: Based on these findings, we next determined the effects of 2 and 3 on Nurr1 activity in a cellular setting using reporter constructs for the NGFI-B response element (NBRE), the Nur response element (NurRE), and the direct repeat 5 (DR5)[36]. All three response elements are robustly activated by common Nurr1 agonists[4],[31]. […]
modified Eagle’s medium (DMEM), high glucose supplemented with 10% fetal calf serum (FCS), sodium pyruvate (1 mM), penicillin (100 U/mL), and streptomycin (100 μg/mL) at 37 °C and 5% CO2 and seeded in 96-well plates (3×10^4 cells/well). […] Five hours after transfection, the cells were incubated with the test compounds in Opti-MEM supplemented with penicillin (100 U/mL), streptomycin (100 μg/mL), and 0.1% DMSO for 15 h before luciferase activity was measured using the Dual -Glo Luciferase Assay System (Promega) according to the manufacturer’s protocol on a Tecan Spark l uminometer (Tecan Deutschland GmbH, Germany). Firefly luminescence was divided by Renilla luminescence and multiplied by 1000, resulting in relative light units (RLU) to normalize for transfection efficiency and cell growth. […]
Reporter gene assays for full-length human Nurr1 and RXR. […] Firefly luminescence was divided by Renilla luminescence and multiplied by 1000, resulting in relative light units (RLU) to normalize for transfection efficiency and cell growth. […]

T1 sequence (P43354 whole entry): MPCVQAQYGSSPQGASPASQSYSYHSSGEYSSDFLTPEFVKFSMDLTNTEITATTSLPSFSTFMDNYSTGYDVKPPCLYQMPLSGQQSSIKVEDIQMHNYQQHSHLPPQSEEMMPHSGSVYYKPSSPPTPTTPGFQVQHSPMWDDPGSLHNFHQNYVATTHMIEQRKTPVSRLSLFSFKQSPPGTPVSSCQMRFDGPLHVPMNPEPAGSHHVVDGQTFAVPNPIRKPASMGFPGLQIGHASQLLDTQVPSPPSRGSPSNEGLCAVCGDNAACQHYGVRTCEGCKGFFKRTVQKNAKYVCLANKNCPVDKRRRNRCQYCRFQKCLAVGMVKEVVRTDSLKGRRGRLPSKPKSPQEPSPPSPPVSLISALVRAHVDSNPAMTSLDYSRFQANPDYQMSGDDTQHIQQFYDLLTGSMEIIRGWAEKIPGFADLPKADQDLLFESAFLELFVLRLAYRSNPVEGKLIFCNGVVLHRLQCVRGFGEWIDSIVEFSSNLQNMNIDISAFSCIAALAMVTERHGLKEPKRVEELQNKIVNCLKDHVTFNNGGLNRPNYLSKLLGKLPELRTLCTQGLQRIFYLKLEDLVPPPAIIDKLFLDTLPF

Structure (SMILES) | activation on NBRE
Cc1c2c(n(-c3ccc(CC(=O)O)cc3)c1C)CCC(F)(F)C2 [compound 2] | no activation was detectable
Cc1c(C)n(-c2ccc(CC(=O)O)cc2)c2ccc(F)cc12 [compound 3] | no activation was detectable
